Results taken from ChEMBL document CHEMBL1128489, “Novel hexakis(areneisonitrile)technetium(I) complexes as radioligands targeted to the multidrug resistance P-glycoprotein” (J Med Chem, 1995).

Columns and labels:
Details in all cases: in vivo, 0.5 h
[1] = test system: Rattus norvegicus; experiment: Biodistribution values represent the mean % id/organ for paired rats 30 min post intravenous injection complex in Heart; assay type: ADME, organism-based
[2] = test system: Rattus norvegicus; experiment: Biodistribution values represent the mean % id/organ for paired rats 30 min post intravenous injection complex in Fat; assay type: ADME, organism-based
[3] = test system: Rattus norvegicus; experiment: Biodistribution values represent the mean % id/organ for paired rats 30 min post intravenous injection complex in Spleen; assay type: ADME, organism-based
[4] = test system: Rattus norvegicus; experiment: Biodistribution values represent the mean % id/organ for paired rats 30 min post intravenous injection complex in Blood; assay type: ADME, organism-based
[5] = test system: Rattus norvegicus; experiment: Biodistribution values represent the mean % id/organ for paired rats 30 min post intravenous injection complex in Adrenal; assay type: ADME, organism-based
[6] = test system: Rattus norvegicus; experiment: Biodistribution values represent the mean % id/organ for paired rats 30 min post intravenous injection complex in GI; assay type: ADME, organism-based
[7] = test system: Rattus norvegicus; experiment: Biodistribution values represent the mean % id/organ for paired rats 30 min post intravenous injection complex in Lungs; assay type: ADME, organism-based, Lung
[8] = test system: Rattus norvegicus; experiment: Biodistribution values represent the mean % id/organ for paired rats 30 min post intravenous injection complex in Skin; assay type: ADME, organism-based
[9] = test system: Rattus norvegicus; experiment: Biodistribution values represent the mean % id/organ for paired rats 30 min post intravenous injection complex in Brain; assay type: ADME, organism-based
[10] = test system: Rattus norvegicus; experiment: Biodistribution values represent the mean % id/organ for paired rats 30 min post intravenous injection complex in Kidney; assay type: ADME, organism-based
[11] = test system: Rattus norvegicus; experiment: Biodistribution values represent the mean % id/organ for paired rats 30 min post intravenous injection complex in Bone; assay type: ADME, organism-based, Bone element
[12] = test system: Rattus norvegicus; experiment: Biodistribution values represent the mean % id/organ for paired rats 30 min post intravenous injection complex in Muscles; assay type: ADME, organism-based, Muscle tissue
[13] = test system: Rattus norvegicus; experiment: Biodistribution values represent the mean % id/organ for paired rats 30 min post intravenous injection complex in Liver; assay type: ADME, organism-based

Substance	ID/organ [1]	ID/organ [2]	ID/organ [3]	ID/organ [4]	ID/organ [5]	ID/organ [6]	ID/organ [7]	ID/organ [8]	ID/organ [9]	ID/organ [10]	ID/organ [11]	ID/organ [12]	ID/organ [13]
Hexakis[3-(hydroxymethyl)benzeneisonitrile]technetium Complex	0.12%	0.2%	1.85%	3.39%	0.05%	13.8%	0.63%	0.62%	0.01%	2.98%	3.6%	2.99%	62.2%
Hexakis-(2-methoxyisobutylisonitrile)Technetium (99mTc-MIBI)	2.36%	0.73%	0.6%	0.33%	0.16%	30.3%	0.71%	3.95%	0.05%	6.26%	11%	18.5%	10.8%
Hexakis[2-(4-Methoxyphenyl)ethaneisonitrile]technetium Complex	0.15%	0.26%	2.94%	0.79%	0.03%	1.86%	3.93%	0.41%	0%	0.19%	3.44%	1.99%	81.1%
Hexakis[3,4-(Methylenedioxy)benzeneisonitrile]technetium Complex	0.03%	0.08%	1.82%	1.45%	0.05%	0.38%	2.62%	0.19%	0.01%	0.12%	4.73%	0.47%	91.8%
Hexakis[2-Methoxy-5-nitrobenzeneisonitrile]technetium Complex	0.35%	0.55%	1.25%	14.1%	0.04%	19.4%	0.51%	2.88%	0.04%	2.74%	9.58%	6.82%	32.5%
Hexakis[3,4-(Methylenedioxy)-alpha-tolueneisonitrile]technetium Complex	0.15%	0.26%	2.78%	4.19%	0.07%	5.75%	3.04%	0.6%	0.01%	0.61%	4.29%	3.9%	73.8%
Hexakis[3,4-Dimethoxy-alpha-tolueneisonitrile]technetium Complex	0.1%	0.21%	0.34%	3.27%	0.07%	33.5%	1.22%	1.35%	0.02%	2.25%	4.72%	2.48%	44.2%
Hexakis[2-(3,4,5-Trimethoxyphenyl)ethaneisonitrile]technetium Complex	0.38%	0.19%	1.5%	0.93%	0.12%	24.5%	0.43%	1.33%	0.01%	10%	5.11%	4.84%	44.2%

Second part, the substance after the results:

ID/organ [1]	ID/organ [2]	ID/organ [3]	ID/organ [4]	ID/organ [5]	ID/organ [6]	ID/organ [7]	ID/organ [8]	ID/organ [9]	ID/organ [10]	ID/organ [11]	ID/organ [12]	ID/organ [13]	Substance
0.17%	0.51%	0.28%	9.44%	0.01%	42.9%	0.37%	5.3%	0.03%	5.21%	5.74%	7.61%	13.8%	Hexakis[3-Nitrobenzeneisonitrile]technetium Complex
0.03%	0.07%	2.28%	1.13%	0.06%	3.15%	1.73%	0.7%	0.01%	0.66%	4.27%	0.68%	92.7%	Hexakis[4-Acetylbenzeneisonitrile]technetium Complex
0.33%	1.26%	1.12%	19.2%	0.03%	10.1%	1.06%	3.65%	0.06%	4.84%	8.79%	6.87%	38%	Hexakis[4-Nitrobenzeneisonitrile]technetium Complex
0.17%	0.17%	0.13%	0.59%	0.04%	65.1%	0.61%	0.76%	0.01%	3.83%	2.29%	3.02%	39.2%	Hexakis[3,4,5-Trimethoxy-alpha-tolueneisonitrile]technetium Complex
0.13%	0.37%	2.47%	9.89%	0.03%	2.99%	2.2%	1.23%	0.03%	1.23%	4.9%	3.84%	75.7%	Hexakis[4-Cyanobenzeneisonitrile]technetium Complex
0.07%	0.14%	1.91%	3%	0.04%	15.7%	1.1%	0.82%	0.02%	1.26%	2.96%	1.77%	77.5%	Hexakis[2-(3,4-Dimethoxyphenyl)ethaneisonitrile]technetium Complex
0.12%	0.2%	3.35%	5.06%	0.04%	2.22%	0.87%	0.43%	0.02%	0.3%	3.63%	1.82%	75.9%	Hexakis[3,5-Dimethoxy-alpha-tolueneisonitrile]technetium Complex
